System: Testosterone
Assay: Testosterone level in blood (serum CLIA) after repeated sc PEP-1
Assay type: in vivo, SD rats
Method: PEP-1 (peptide of SEQ ID NO: 1), lyophilized white powder, obtained according to the method mentioned in example 1 was dissolved in 0.9% of saline, considering the correction factor of PEP-1 (purity: 94.13%, content: 92.36%, correction factor: 1.15). 50 mg/mL stock solution was further diluted into 20 mg/mL, 2 mg/mL, and 1 mg/mL with 0.9% saline, and stored at 4° C. for a week until the use.
The purpose of this example is to confirm the change of sexual hormones in blood from SD rats with 7 days repeated daily administration of SEQ ID NO: 1 peptide, PEP-1. This experiment followed the Ethics Regulation of Animal Test by KAMSI Inc. (Korea Animal Medical Science Institute). In addition, this experiment, Non-GLP experiment, referred to the MFDS (Ministry of Food and Drug Safety) notification; Agent 2013-40 (5th April 2013), Principles of Good Laboratory Practice (1997).
SPF Rats (Crlj:CD(SD)) were purchased from ORIENTBio Inc. (Mokdong-ri, Buk-myeon, Gapyeong-gun, Gyeonggi-do, Republic of Korea). 75 male (6.5 weeks old and 190˜210 g) and 75 female (6.5 weeks old and 160˜180 g) rats were monitored for 4 days, and 64 of male and female rats (each) were selected for the experiment. Raising condition is as follows; 23±3° C. of temperature, […] of relative humidity, 10˜20 times/hr of number of air changes, 12 hours (8 a.m.˜8 p.m.) of lighting with 150˜300 Lux of intensity.
64 male and female […] (mentioned above) were divided into 8 groups. Administration regimen, for example, drugs, routes, dosages, and volumes were as follows:
The detailed administration regimen is as follows; once a day, twice a day and twice a week in each experimental group. Injection initiated at 10 a.m. every day, and each rat was injected at one minute intervals. Rats in Group 9, 10, 13 and 14 were injected twice a week. Administration of high dose test agent preceded that of low dose. The volume of injection was calculated using recently measured weight of rats, and it was 5 mL/kg. Subcutaneous injection was performed as follows; assistant tilted the back of rat upward, and experimenter sterilized the back of rat with 70% alcohol, followed by subcutaneous injection of test agent with 26 G syringe.
1.4 mL of blood sample (0.7 mL of serum) was collected after measurement of weight (Day 0). Next day (1 Day), 1.4 mL of blood sample (0.7 mL of serum) was collected twice after injection of test agent (4 hrs and 8 hrs after administration of test agent). For next 6 days (Day 2˜Day 7), 1.4 mL of blood was extracted once everyday (4 hours after injection of test agent). Dose and volume of test agent of each group followed the Table 3, and injection time zone was same every day. Blood was extracted from the jugular vein, and left at room temperature for 30 minutes. Serum was separated using centrifugation (10,000 rpm for 5 minutes), and stored at −70±5° C. in Deep freezer until the use. Blood extraction from each subject was done in the same time zone every day.
A CLIA (Chemi-Luminescence Immune Assay) Kit was used to analyze Testosterone, Estradiol E2, FSH (Follicle stimulating hormone), and LH (Luteinizing hormone). Analysis was completed within 48 hrs after blood extraction (Laboratory Medicine Department, Chung-Ang University Hospital), and detailed method is as follows; One-way ANOVA was used to verify the comparison between the vehicle and PEP-1, and between different doses of PEP-1. For further analysis, Duncan test was used as parametric test and Dunnett's test as non-parametric test. p<0.05 represents the statistical significance, and all statistical analysis was carried out with SPSS 10.1.
Testosterone was analyzed using the samples prepared from example 2. 15 μL of serum was used for analysis. Fundamentals of analysis is competitive immunoassay based on direct chemi-luminescent. As mentioned in example 2, CLIA (Chemi-luminescence immune assay) Kit was used for Testosterone analysis, following the manufacture's protocol. […]

EARPALLTSRLRFIPK (listed as Homo sapiens) [PEP-1, hormone secretion modulator / GnRH analog]
Testosterone level in blood (G11 Female 100 mg/kg sc 1/day x7, 6 days): 1.01 ng/dL | Testosterone level in blood (G11 Female 100 mg/kg sc 1/day x7, 7 days): 1.25 ng/dL | Testosterone level in blood (G11 Female 100 mg/kg sc 1/day x7, pre): 1.79 ng/dL | Testosterone level in blood (G12 Male 100 mg/kg sc 1/day x7, 4 hr): 0.08 ng/dL | Testosterone level in blood (G12 Male 100 mg/kg sc 1/day x7, 8 hr): 0.01 ng/dL | Testosterone level in blood (G12 Male 100 mg/kg sc 1/day x7, 2 days): 0.01 ng/dL | Testosterone level in blood (G12 Male 100 mg/kg sc 1/day x7, 3 days): 0.05 ng/dL | Testosterone level in blood (G12 Male 100 mg/kg sc 1/day x7, 4 days): 0.17 ng/dL | Testosterone level in blood (G12 Male 100 mg/kg sc 1/day x7, 5 days): 0.11 ng/dL | Testosterone level in blood (G12 Male 100 mg/kg sc 1/day x7, 6 days): 0.12 ng/dL | Testosterone level in blood (G12 Male 100 mg/kg sc 1/day x7, 7 days): 0.12 ng/dL | Testosterone level in blood (G12 Male 100 mg/kg sc 1/day x7, pre): 0.18 ng/dL | Testosterone level in blood (G13 Female 100 mg/kg sc 2/week x2 (days 1,7), 4 hr): 7.48 ng/dL | Testosterone level in blood (G13 Female 100 mg/kg sc 2/week x2 (days 1,7), 8 hr): 6.34 ng/dL | Testosterone level in blood (G13 Female 100 mg/kg sc 2/week x2 (days 1,7), 2 days): 0.97 ng/dL | Testosterone level in blood (G13 Female 100 mg/kg sc 2/week x2 (days 1,7), 3 days): 1.65 ng/dL | Testosterone level in blood (G13 Female 100 mg/kg sc 2/week x2 (days 1,7), 4 days): 1.25 ng/dL | Testosterone level in blood (G13 Female 100 mg/kg sc 2/week x2 (days 1,7), 5 days): 1.3 ng/dL | Testosterone level in blood (G13 Female 100 mg/kg sc 2/week x2 (days 1,7), 6 days): 2.54 ng/dL | Testosterone level in blood (G13 Female 100 mg/kg sc 2/week x2 (days 1,7), 7 days): 12.35 ng/dL | Testosterone level in blood (G13 Female 100 mg/kg sc 2/week x2 (days 1,7), pre): 1.71 ng/dL | Testosterone level in blood (G14 Male 100 mg/kg sc 2/week x2 (days 1,7), 4 hr): 0.07 ng/dL | Testosterone level in blood (G14 Male 100 mg/kg sc 2/week x2 (days 1,7), 8 hr): 0.01 ng/dL | Testosterone level in blood (G14 Male 100 mg/kg sc 2/week x2 (days 1,7), 2 days): 0.01 ng/dL | Testosterone level in blood (G14 Male 100 mg/kg sc 2/week x2 (days 1,7), 3 days): 0.13 ng/dL | Testosterone level in blood (G14 Male 100 mg/kg sc 2/week x2 (days 1,7), 4 days): 0.17 ng/dL | Testosterone level in blood (G14 Male 100 mg/kg sc 2/week x2 (days 1,7), 5 days): 0.13 ng/dL | Testosterone level in blood (G14 Male 100 mg/kg sc 2/week x2 (days 1,7), 6 days): 0.14 ng/dL | Testosterone level in blood (G14 Male 100 mg/kg sc 2/week x2 (days 1,7), 7 days): 0.15 ng/dL | Testosterone level in blood (G14 Male 100 mg/kg sc 2/week x2 (days 1,7), pre): 0.13 ng/dL | Testosterone level in blood (G15 Female 250 mg/kg sc 1/day x7, 4 hr): 6.27 ng/dL | Testosterone level in blood (G15 Female 250 mg/kg sc 1/day x7, 8 hr): 8.2 ng/dL | Testosterone level in blood (G15 Female 250 mg/kg sc 1/day x7, 2 days): 3.77 ng/dL | Testosterone level in blood (G15 Female 250 mg/kg sc 1/day x7, 3 days): 2.09 ng/dL | Testosterone level in blood (G15 Female 250 mg/kg sc 1/day x7, 4 days): 0.8 ng/dL | Testosterone level in blood (G15 Female 250 mg/kg sc 1/day x7, 5 days): 0.75 ng/dL | Testosterone level in blood (G15 Female 250 mg/kg sc 1/day x7, 6 days): 1.27 ng/dL | Testosterone level in blood (G15 Female 250 mg/kg sc 1/day x7, 7 days): 1.52 ng/dL | Testosterone level in blood (G15 Female 250 mg/kg sc 1/day x7, pre): 1.65 ng/dL | Testosterone level in blood (G16 Male 250 mg/kg sc 1/day x7, 4 hr): 0.11 ng/dL | Testosterone level in blood (G16 Male 250 mg/kg sc 1/day x7, 8 hr): 0.03 ng/dL | Testosterone level in blood (G16 Male 250 mg/kg sc 1/day x7, 2 days): 0 ng/dL | Testosterone level in blood (G16 Male 250 mg/kg sc 1/day x7, 3 days): 0.08 ng/dL | Testosterone level in blood (G16 Male 250 mg/kg sc 1/day x7, 4 days): 0.18 ng/dL | Testosterone level in blood (G16 Male 250 mg/kg sc 1/day x7, 5 days): 0.09 ng/dL | Testosterone level in blood (G16 Male 250 mg/kg sc 1/day x7, 6 days): 0.14 ng/dL | Testosterone level in blood (G16 Male 250 mg/kg sc 1/day x7, 7 days): 0.12 ng/dL | Testosterone level in blood (G16 Male 250 mg/kg sc 1/day x7, pre): 0.18 ng/dL | Testosterone level (female group, after injection of PEP-1): 0.05 ng/dL | Effect on the Testosterone level (female rat): does not have significant effect | Testosterone level (male groups, Day 1, all groups injected with PEP-1): 6 to 10 ng/dL | Testosterone level, PEP-1 versus vehicle (male groups, after Day 3): no significant difference between PEP-1 and vehicle
